Values quoted from earlier work, collected in patent US20220287943A1, “METHOD FOR TREATING KERATIN MATERIAL, COMPRISING THE APPLICATION OF AN ORGANIC C1-C6-ALKOXY-SILANE AND AN AMINO ACID AND/OR AMINO ACID DERIVATIVE” (Henkel AG & Co. KGaA, priority 2019, published 2022).

Details: for solubility in water: about 25° C.

| solubility in water | solubility in water (in words) (at about 25° C.) | SMILES |
| --- | --- | --- |
| about 2.5 g/L |  | Nc1cc(S(=O)(=O)[O-])cc2cc(S(=O)(=O)[O-])c(N=Nc3ccccc3)c(O)c12.[Na+].[Na+] [Acid Red 33, diantrium salt of 5-amino-4-hydroxy-3-(phenylazo)-naphthalene-2,7-disulphonate] |
|  | highly soluble in water | O=C([O-])C1=NN(c2ccc(S(=O)(=O)[O-])cc2)C(=O)C1N=Nc1ccc(S(=O)(=O)[O-])cc1.[Na+].[Na+].[Na+] (stereo not drawn) [Acid Yellow 23, trisodium salt of 4,5-dihydro-5-oxo-1-(4-sulfophenyl)-4-((4-sulfophenyl)azo)-1H-pyrazole-3-carboxylic acid] |
| more than 7 g/L |  | O=S(=O)([O-])c1ccc(N=Nc2c(O)ccc3ccccc23)cc1.[Na+] [Acid Orange 7, sodium salt of 4-[(2-hydroxy-1-naphthy)azo]lbenzene sulphonate] |
